Reference: ChEMBL document CHEMBL1142058, “Amorphane sesquiterpenes from a marine Streptomyces sp” (J Nat Prod, 2007)
Activity calls are given as the source filed them.

Assays:
Format in all cases: functional, organism-based
Bacillus subtilis = test: Antibacterial activity against Bacillus subtilis at 80 ug/disk
[1] = system: Streptomyces viridochromogenes; test: Antibacterial activity against Streptomyces viridochromogenes Tu 57 at 80 ug/disk
Escherichia coli = test: Antibacterial activity against Escherichia coli at 80 ug/disk
Staphylococcus aureus = test: Antibacterial activity against Staphylococcus aureus at 80 ug/disk
Chlorella vulgaris = test: Antimicrobial activity against Chlorella vulgaris at 80 ug/disk
Chlorella sorokiniana = test: Antimicrobial activity against Chlorella sorokiniana at 80 ug/disk
Rhizomucor miehei = test: Antifungal activity against Mucor miehei at 80 ug/disk
Candida albicans = test: Antifungal activity against Candida albicans at 80 ug/disk
Artemia = test: Activity against brine shrimp at 10 ug/mL
Desmodesmus subspicatus = test: Antimicrobial activity against Scenedesmus subspicatus at 80 ug/disk

Measured: Activity

C[C@H]1C(=O)C[C@H]2[C@@H](C1O)[C@@H](C(C)(C)O)CC[C@@]2(C)O (stereo not given in full)
inactive: Bacillus subtilis | [1] | Escherichia coli | Staphylococcus aureus | Chlorella vulgaris | Chlorella sorokiniana | Rhizomucor miehei | Candida albicans | Artemia | Desmodesmus subspicatus

CC(C)[C@H]1CC[C@@](C)(O)[C@H]2CC(=O)C(CO)=C[C@@H]12
inactive: Bacillus subtilis | [1] | Escherichia coli | Staphylococcus aureus | Chlorella vulgaris | Chlorella sorokiniana | Rhizomucor miehei | Candida albicans | Artemia | Desmodesmus subspicatus

CC1=C[C@H]2[C@@H](C(C)(C)O)CC[C@@](C)(O)[C@H]2CC1
inactive: Bacillus subtilis | [1] | Escherichia coli | Staphylococcus aureus | Chlorella vulgaris | Chlorella sorokiniana | Rhizomucor miehei | Candida albicans | Artemia | Desmodesmus subspicatus

CC1=C[C@H]2[C@@H](C(C)C)CC[C@@](C)(O)[C@H]2CC1=O
inactive: Bacillus subtilis | [1] | Escherichia coli | Staphylococcus aureus | Chlorella vulgaris | Chlorella sorokiniana | Rhizomucor miehei | Candida albicans | Artemia | Desmodesmus subspicatus
